Results taken from US20130281397A1, “TREATMENT OF DISEASES BY EPIGENETIC REGULATION” (RVX Therapeutics Inc., priority 2012, published 2013).

Key:
[1] = tested on: c-myc; experiment: Inhibition of c-myc expression (mRNA, real-time PCR) in MV4-11 cells; format: cell-based, Human; design: key: Active: Compounds with an IC50 value less than 30 μM were deemed to be active; conditions: 3 hours at 37° C., duplex with cyclophilin
Method: MV4-11 cells (2.5×10^4 cells) were plated in 96 well U-bottom plates with test compound or DMSO (0.1%), and incubated for 3 hours at 37° C. Cells were then harvested by centrifugation, lysed, and mRNA was isolated using the mRNA catcher plus kit (Invitrogen). Reverse transcription of the mRNA and duplex amplification of the c-myc and cyclophilin cDNAs were performed using the RNA Ultrasense kit (Invitrogen) and a ViiA7 real-time PCR machine (Applied Biosystems). IC50 values were determined from a dose response curve.

[2] = tested on: Human AML MV-4-11 cells; experiment: Inhibition of cell proliferation in human AML MV-4-11 cells; format: cell-based; design: key: Active: Compounds with an IC50 value less than 30 uM were deemed to be active; conditions: 72 hours, CellTiter Aqueous One Solution, 30 uM to 0.2 μM
Method: MV4-11 cells: 96-well plates were seeded with 5×10^4 cells per well of exponentially growing human AML MV-4-11 (CRL-9591) cells and immediately treated with two-fold dilutions of test compounds, ranging from 30 uM to 0.2 μM. Triplicate wells were used for each concentration, as well as a media only and three DMSO control wells. The cells and compounds were incubated at 37° C., 5% CO2 for 72 hours before adding 20 μL of the CellTiter Aqueous One Solution (Promega) to each well and incubating at 37° C., 5% CO2 for an additional 3-4 hours. The absorbance was taken at 490 nm in a spectrophotometer and the percentage of proliferation relative to DMSO-treated cells was calculated after correction from the blank well. IC50 were calculated using the GraphPad Prism software.

[3] = molecular target: T1, Brd4 bromodomain 1 (Homo sapiens, UniProt O60885); experiment: Inhibition of binding of tetra-acetylated histone H4 and Brd4 bromodomain 1 by TR-FRET; conditions: His-tagged bromodomain 200 nM, biotinylated tetra-acetylated histone H4 peptide 25-50 nM, 2 hours at room temperature
T1 construct: made in house; host or cells: E. coli BL21(DE3)

| FRET activity (<50 uM) [3] | melting point | Compound | c-myc activity (<30 uM) [1] | cell proliferation activity (<30 uM) [2] |
| --- | --- | --- | --- | --- |
| Active | 158 to 161 °C | COc1cc2cc(-c3cc(C)c(O)c(C)c3)[nH]c(=O)c2c(OC)c1CN1CCOCC1 [Example 46, 3-(4-hydroxy-3,5-dimethylphenyl)-6,8-dimethoxy-7-(morpholinomethyl)isoquinolin-1(2H)-one] | Active | Active |
| Active |  | COc1cc(OC)c2c(=O)[nH]c(-c3ccc(N4CCN(C)CC4)cc3)nc2c1 [Example 38, 5,7-dimethoxy-2-(4-(4-methylpiperazin-1-yl)phenyl)quinazolin-4(3H)-one] | Active | Active |
| Active | 270 to 272 °C | COc1cc(OC)c2c(=O)[nH]c(-c3cc(C)c(OCC(=O)O)c(C)c3)nc2c1 [Example 59, 2-(4-(5,7-dimethoxy-4-oxo-3,4-dihydroquinazolin-2-yl)-2,6-dimethylphenoxy)acetic acid] | Inactive |  |
| Active |  | COc1cc(OC)c2c(=O)[nH]c(-c3cc(C)c(O)c(C)c3)nc2c1 [Example 10, 2-(4-hydroxy-3,5-dimethylphenyl)-5,7-dimethoxyquinazolin-4(3H)-one] | Active | Active |
| Active | 237 to 239.1 °C | COc1cc2nc(-c3cc(C)c(O)c(C)c3)[nH]c(=O)c2c(OC)c1CN1CCOCC1 [Example 75, 2-(4-hydroxy-3,5-dimethylphenyl)-5,7-dimethoxy-6-(morpholinomethyl)quinazolin-4(3H)-one] | Active | Active |
| Active |  | Cc1cc(-c2nc3ccc(CN4CCOCC4)cc3c(=O)[nH]2)cc(C)c1O [Example 57, 2-(4-hydroxy-3,5-dimethylphenyl)-6-(morpholinomethyl)quinazolin-4(3H)-one] | Active | Active |
| Active |  | COc1cc(OC)c2c(=O)[nH]c(-c3cc(C)c(OCCNS(C)(=O)=O)c(C)c3)nc2c1 [Example 96, N-(2-(4-(5,7-dimethoxy-4-oxo-3,4-dihydroquinazolin-2-yl)-2,6-dimethylphenoxy)ethyl)methanesulfonamide] | Inactive | Active |
| Active |  | COc1cc(OC)c2c(=O)[nH]c(-c3cc(C)c(OCCO)c(C)c3)nc2c1 [Example 16, 2-(4-(2-hydroxyethoxy)-3,5-dimethylphenyl)-5,7-dimethoxyquinazolin-4(3H)-one] | Active |  |
| Active |  | COc1cc(OC)c2c(=O)[nH]c(-c3cc(C)c(OCCN4CCOCC4)c(C)c3)nc2c1 [Example 17, 2-(3,5-dimethyl-4-(2-morpholinoethoxy)phenyl)-5,7-dimethoxyquinazolin-4(3H)-one] |  | Active |
| Active | 253 to 254 °C | COc1cc(OC)c2c(=O)n(C)c(-c3cc(C)c(O)c(C)c3)cc2c1 [Example 4, 3-(4-hydroxy-3,5-dimethylphenyl)-6,8-dimethoxy-2-methylisoquinolin-1(2H)-one] | Active | Active |
|  |  | COc1cc(OC)c2c(=O)[nH]c(-c3cc(C)c(OCCN4CCCC4)c(C)c3)nc2c1 [Example 67, 2-(3,5-dimethyl-4-(2-(pyrrolidin-1-yl)ethoxy)phenyl)-5,7-dimethoxyquinazolin-4(3H)-one] | Active | Active |
| Active | 277 to 279 °C | COc1cc(OC)c2c(=O)[nH]c(-c3ccc(N(CCO)CCO)cc3)nc2n1 [Example 72, 2-(4-(bis(2-hydroxyethyl)amino)phenyl)-5,7-dimethoxy-pyrido[2,3-d]pyrimidin-4(3H)one] |  |  |
| Inactive | 229.7 to 230.5 °C | COc1cc(OC)c2c(=O)[nH]c(-c3cc(C(C)(C)C)c(O)c(C(C)(C)C)c3)nc2c1 [Example 23, 2-(3,5-di-tert-butyl-4-hydroxyphenyl)-5,7-dimethoxyquinazolin-4(3H)-one] |  |  |
| Active | 255 to 256 °C | COc1cc(OC)c2c(=O)[nH]c(-c3cc(C)c(OCCO)c(C)c3)nc2n1 [Example 65, 2-(4-(2-hydroxyethoxy)-3,5-dimethylphenyl)-5,7-dimethoxypyrido[2,3-d]pyrimidin-4(3H)-one] |  |  |
| Inactive | > 300 °C | CC(=O)Nc1ccc2nc(-c3cc(C)c(OCCO)c(C)c3)[nH]c(=O)c2c1 [Example 68, N-(2-(4-(2-hydroxyethoxy)-3,5-dimethylphenyl)-4-oxo-3,4-dihydroquinazolin-6-yl)acetamide] |  |  |
